Where “and” joins values, the source holds several entries; their conditions need not be identical. Equal values may be shown once. Calls of active or inactive are those of the source. The calls are words filed in the database; no cut-off is given here.
Tests used:
[1] = Apparent permeability across apical to basolateral side in MDCK-MDR1 cells at 1 uM measured after 120 mins by LC-MS/MS analysis; type: ADME, cell-based, Canis lupus familiaris; settings: dog
[2] = Ratio of AUC(last) in liver to plasma in CD-1 mouse at 8 mg/kg, po by LC-MS/MS analysis; type: ADME, organism-based
[3] = Drug concentration in CD-1 mouse liver at 8 mg/kg, po measured after 8 hrs by LC-MS/MS analysis; type: ADME, organism-based; settings: read-out: Ct
Cytochrome P450 3A4 [4] = molecular target: T1, Cytochrome P450 3A4 (Homo sapiens, UniProt P08684); test: Inhibition of CYP3A4 in human liver microsomes using testosterone as substrate preincubated for 5 mins followed by NADPH addition by LC-MS/MS analysis; type: ADME
T1 sequence (P08684 whole entry): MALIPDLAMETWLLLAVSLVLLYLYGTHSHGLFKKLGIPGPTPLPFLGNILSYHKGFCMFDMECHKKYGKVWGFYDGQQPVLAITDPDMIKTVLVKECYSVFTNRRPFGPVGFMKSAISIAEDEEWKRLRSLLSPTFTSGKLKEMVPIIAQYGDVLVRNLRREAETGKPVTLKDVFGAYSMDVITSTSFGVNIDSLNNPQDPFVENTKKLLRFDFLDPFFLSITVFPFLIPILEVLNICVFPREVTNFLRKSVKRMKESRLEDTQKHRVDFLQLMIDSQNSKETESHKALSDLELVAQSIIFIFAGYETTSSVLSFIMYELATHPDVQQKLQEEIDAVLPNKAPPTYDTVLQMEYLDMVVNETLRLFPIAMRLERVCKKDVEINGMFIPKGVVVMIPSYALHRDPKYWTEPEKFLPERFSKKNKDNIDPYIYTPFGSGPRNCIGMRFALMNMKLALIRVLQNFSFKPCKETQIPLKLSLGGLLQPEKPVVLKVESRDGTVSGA

[5] = Drug concentration in CD-1 mouse liver at 8 mg/kg, po measured after 4 hrs by LC-MS/MS analysis; type: ADME, organism-based; settings: read-out: Ct
[6] = Drug concentration in CD-1 mouse liver at 8 mg/kg, po measured after 30 mins by LC-MS/MS analysis; type: ADME, organism-based; settings: read-out: Ct
[7] = Clearance in CD-1 mouse at 3 mg/kg, iv measured for 24 hrs by LC-MS/MS analysis; type: ADME, organism-based; settings: in vivo
Cytochrome P450 3A4 [8] = molecular target: T1, Cytochrome P450 3A4; test: Inhibition of CYP3A4 in human liver microsomes using midazolam as substrate preincubated for 5 mins followed by NADPH addition by LC-MS/MS analysis; type: ADME
Cytochrome P450 1A2 = molecular target: T2, Cytochrome P450 1A2 (Homo sapiens, UniProt P05177); test: Inhibition of CYP1A2 in human liver microsomes using phenacetin as substrate preincubated for 5 mins followed by NADPH addition by LC-MS/MS analysis; type: ADME
T2 sequence (P05177 whole entry): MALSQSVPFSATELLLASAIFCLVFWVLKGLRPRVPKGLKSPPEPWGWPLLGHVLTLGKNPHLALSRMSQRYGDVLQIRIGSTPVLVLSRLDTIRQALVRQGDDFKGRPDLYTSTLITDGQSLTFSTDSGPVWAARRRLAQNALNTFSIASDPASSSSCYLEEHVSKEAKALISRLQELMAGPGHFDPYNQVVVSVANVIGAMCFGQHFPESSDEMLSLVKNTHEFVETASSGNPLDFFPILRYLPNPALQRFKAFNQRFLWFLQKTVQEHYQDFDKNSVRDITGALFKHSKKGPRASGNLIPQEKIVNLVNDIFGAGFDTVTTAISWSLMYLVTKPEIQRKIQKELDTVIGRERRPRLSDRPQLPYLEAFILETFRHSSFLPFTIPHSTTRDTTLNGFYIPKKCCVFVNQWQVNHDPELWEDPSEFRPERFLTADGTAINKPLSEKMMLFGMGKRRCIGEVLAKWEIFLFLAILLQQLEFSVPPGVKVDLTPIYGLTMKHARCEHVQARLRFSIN

OATP1B3 = test: Ratio of drug uptake in HEK293 cells transfected with OATP1B3 (unknown origin) in absence of transporter inhibitor, estradiol-17beta-glucuronide to drug uptake in HEK293 cells in absence of transporter inhibitor, estradiol-17beta-glucuronide by LC-MS/MS analysis; type: ADME, cell-based; settings: human, HEK293 cells transfected with OATP1B3 versus HEK293 cells
[9] = Drug concentration in CD-1 mouse liver at 8 mg/kg, po measured after 6 hrs by LC-MS/MS analysis; type: ADME, organism-based; settings: read-out: Ct
Hepatitis B virus [10] = test: Antiviral activity against Hepatitis B virus infected in human HepG2.2.15 cells assessed as reduction in HBsAg level measured after 4 days by AlphaLisa assay; type: functional, organism-based; settings: HepG2.2.15, 96 h
Cytochrome P450 2A6 = molecular target: T3, Cytochrome P450 2A6 (Homo sapiens, UniProt P11509); test: Inhibition of CYP2A6 in human liver microsomes using coumarin as substrate preincubated for 5 mins followed by NADPH addition by LC-MS/MS analysis; type: ADME
T3 sequence (P11509 whole entry): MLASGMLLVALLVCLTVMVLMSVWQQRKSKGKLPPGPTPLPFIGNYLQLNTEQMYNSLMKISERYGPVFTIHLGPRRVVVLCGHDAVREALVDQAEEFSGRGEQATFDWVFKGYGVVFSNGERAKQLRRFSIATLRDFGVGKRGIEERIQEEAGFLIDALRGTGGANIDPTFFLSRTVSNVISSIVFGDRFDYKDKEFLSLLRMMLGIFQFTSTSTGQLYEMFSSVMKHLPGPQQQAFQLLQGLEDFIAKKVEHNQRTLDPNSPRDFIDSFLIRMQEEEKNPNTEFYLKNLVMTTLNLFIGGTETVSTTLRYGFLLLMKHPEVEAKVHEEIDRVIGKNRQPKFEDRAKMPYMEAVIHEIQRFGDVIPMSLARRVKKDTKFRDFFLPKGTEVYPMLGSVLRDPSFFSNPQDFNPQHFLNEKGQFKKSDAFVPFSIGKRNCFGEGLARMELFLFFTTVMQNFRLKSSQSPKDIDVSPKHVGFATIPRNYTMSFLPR

OATP1B1 = test: Ratio of drug uptake in HEK293 cells transfected with OATP1B1 (unknown origin) in absence of transporter inhibitor, estradiol-17beta-glucuronide to drug uptake in HEK293 cells in absence of transporter inhibitor, estradiol-17beta-glucuronide by LC-MS/MS analysis; type: ADME, cell-based; settings: human, HEK293 cells transfected with OATP1B1 versus HEK293 cells
[11] = Volume of distribution at steady state in CD-1 mouse at 3 mg/kg, iv measured for 24 hrs by LC-MS/MS analysis; type: ADME, organism-based; settings: in vivo, read-out: Vdss
Hepatitis B virus [12] = test: Antiviral activity against Hepatitis B virus infected in human HepG2.2.15 cells assessed as reduction in HBV pregenomic mRNA level at 1 uM measured after 5 days by Northern blot analysis; type: functional, organism-based; settings: time 5.0 day
[13] = Metabolic stability in mouse liver microsomes assessed as half life preincubated with compound for 10 mins followed by NADPH regenerating system addition and measured for 60 mins by LC/MS-MS analysis; type: ADME, Microsome; settings: time 70 min
[14] = Drug concentration in CD-1 mouse liver at 8 mg/kg, po measured after 15 mins by LC-MS/MS analysis; type: ADME, organism-based; settings: read-out: Ct
Cytochrome P450 2B6 = molecular target: T4, Cytochrome P450 2B6 (Homo sapiens, UniProt P20813); test: Inhibition of CYP2B6 in human liver microsomes using bupropion as substrate preincubated for 5 mins followed by NADPH addition by LC-MS/MS analysis; type: ADME
T4 sequence (P20813 whole entry): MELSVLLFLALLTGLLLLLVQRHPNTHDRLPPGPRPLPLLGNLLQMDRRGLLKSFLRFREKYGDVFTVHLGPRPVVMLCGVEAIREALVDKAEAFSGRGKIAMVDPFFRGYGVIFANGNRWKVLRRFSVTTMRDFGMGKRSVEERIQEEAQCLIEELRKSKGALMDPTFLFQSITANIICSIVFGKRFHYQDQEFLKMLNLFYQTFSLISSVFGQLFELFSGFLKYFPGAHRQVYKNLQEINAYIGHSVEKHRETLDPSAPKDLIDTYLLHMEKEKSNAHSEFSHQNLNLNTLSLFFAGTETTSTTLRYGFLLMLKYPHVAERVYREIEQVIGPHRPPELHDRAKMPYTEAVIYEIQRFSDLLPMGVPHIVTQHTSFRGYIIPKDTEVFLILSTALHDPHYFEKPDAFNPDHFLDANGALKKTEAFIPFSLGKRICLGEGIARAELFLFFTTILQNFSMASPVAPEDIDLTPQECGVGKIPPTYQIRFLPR

**Q.** With COc1cc2c(cc1OCCCCCCC(=O)O)C[C@@H](C(C)C)n1cc(C(=O)O)c(=O)cc1-2 as the compound, how does the Papp A→B at 2 h, 1 µM [1] read?
**A.** 0.38 ×10⁻⁶ cm/s

**Q.** What about the Kp [2] of the same compound?
**A.** 37.7

**Q.** What about the concentration at 8 h [3] of the same compound?
**A.** 63 ng/mL and 140 nM

**Q.** And the IC50 (Cytochrome P450 3A4 [4])?
**A.** > 10 µM

**Q.** And the concentration at 4 h [5]?
**A.** 138 ng/mL and 300 nM

**Q.** What about the concentration at 0.5 h [6] of the same compound?
**A.** 309 ng/mL and 680 nM

**Q.** And the clearance [7]?
**A.** 198 mL/min/kg

**Q.** What about the IC50 (Cytochrome P450 3A4 [8]) of the same compound?
**A.** > 10 µM

**Q.** What about the IC50 (Cytochrome P450 1A2) of the same compound?
**A.** > 10 µM

**Q.** And the uptake ratio (OATP1B3)?
**A.** 24.8

**Q.** And the concentration at 6 h [9]?
**A.** 76 ng/mL and 170 nM

**Q.** And the EC50 (Hepatitis B virus [10])?
**A.** 0.023 µM

**Q.** And the IC50 (Cytochrome P450 2A6)?
**A.** > 10 µM

**Q.** And the uptake ratio (OATP1B1)?
**A.** 19

**Q.** What about the Vd [11] of the same compound?
**A.** 3.26 L/kg

**Q.** What about the Activity (Hepatitis B virus [12]) of the same compound?
**A.** Active

**Q.** And the half-life [13]?
**A.** 28.9 h

**Q.** What about the concentration at 0.25 h [14] of the same compound?
**A.** 333 ng/mL and 730 nM

**Q.** And the IC50 (Cytochrome P450 2B6)?
**A.** > 10 µM
